“Also recorded” adds a separate entry of the source. Where a SMILES comes first, the peptide text is derived from it. The star is where a group is joined. DTPA(central) = O=C(O)CN(CCN(CCN(CC(=O)O)CC(=O)O)CC(=O)*)CC(=O)O; FITC = O=C1OC2(c3ccc(O)cc3Oc3cc(O)ccc32)c2ccc(NC(=S)*)cc21
Columns and labels:
[1] = test system: astrocytomas overexpressing VEGF; assay: homing of fluorescein-labeled peptide after i.v. injection; assay type: in vivo, mice; settings: angiogenic vessels
Protocol: (§1) Athymic female Balb/c nu-nu mice (4-6 wks) from Taconic Europe were used in all tumor experiments. Establishment of the intracranial tumors has been described (Blouw et al., 2003). In brief, 50 000 HIFko, VEGF+, U87MG, U87-GFP, U87-MDGI-GFP or BT4C tumor cells in phosphate buffered saline (PBS) or DMEM were injected through the skull using a Hamilton syringe (no 84855), 2 mm right from the bregma at the depth of 3 mm in the brain parenchyma. Mice were used for some experiments 10-15 days after tumor cell inoculation. In experiments studying the role of MDGI in tumor progression and invasiveness, mice were used 10-21 days after tumor cell inoculation. To establish subcutaneous tumors, 2-5×10^6 cells were grafted subcutaneously on the abdominal side of the mice (in some experiments) or into the mammary fat pad, in other experiments. All animal studies were conducted according to the guidelines of the Provincial Government of Southern Finland and the protocol was approved by the Experimental Animal Committee.
(§2) Intravenously injected fluorescein-labeled peptides (100 μl of 1 mM solution) and antibodies (20 μg/animal) were allowed to circulate for one hour followed by perfusion through the heart with 10 ml of phosphate buffered saline (PBS) and 10 ml of 4% paraformaldehyde (PFA) in PBS. Tumors and organs were excised, PFA-fixed and soaked in 30% sucrose (w/v) overnight. Tissues were frozen in the OCT embedding medium (Tissue-Tek). Sections (5-10 μm) were cut for histological analyses. To detect the in vivo distribution of the fluorescein-labeled peptides, sections were stained with a rabbit anti-FITC antibody (Zymed Laboratories, San Francisco, USA). To visualize blood vessels, MDGI and tumor cells, sections were stained with the rat anti-mouse CD31 (BD Pharmingen), goat or rabbit anti-MDGI (Santa Cruz Biotechnology, USA), or a rabbit anti-SV40 large T antigen (a kind gift from Dr. Hanahan, ISREC, Switzerland) antibodies followed by the Alexa-594 and Alexa-488 conjugated secondary antibodies (Molecular Probes, Eugene, Oreg., USA). Nuclei were visualized with DAPI (Vector Laboratories, Burlingame). Sections were examined under an inverted fluorescence microscope (Axioplan).

[2] = test system: intracranial U87MG human glioma xenografts; assay: as above; assay type: in vivo, mice; settings: intravenous injection
Protocol: as §1, §2

[3] = test system: orthotopic MDA-MB-231 human breast cancer xenografts; assay: as above; assay type: in vivo, mice; settings: intravenous injection; parental MDA-MB-231
Protocol: as §1, §2

[4] = test system: rat BT4C glioma xenografts; assay: as above; assay type: in vivo, mice; settings: intravenous injection
Protocol: as §1, §2

[5] = test system: tumors established from the HIFko cells implanted subcutaneously; assay: as above; assay type: in vivo, mice; settings: subcutaneous HIFko tumors
Protocol: as §1, §2

[6] = test system: MDGI-expressing MDA-MB-231 xenografts; assay: as above; assay type: in vivo, mice
Protocol: as §2
To obtain an MDA-MB-231 breast tumor cell line stably expressing the MDGI as a c-Myc fusion protein, cells were transfected with the pcDNA3-9E10-MDGI plasmid as described herein. […]

i.c. U87MG tumor = test system: i.c. U87MG tumor; set-up: species or system mice; settings: mouse, in vivo
Protocol: The DTPA conjugated peptides (20 μg per animal) were mixed with 0.2 M NaAc (pH 5) and 5 MBq of ^111Indiumchloride (^111InCl3, Mallinckrodt, Le Petten, Netherlands) per animal was added to the mixture. The total volume of the solution was calculated to be 100 μl/animal. The reaction mixture was incubated for an hour at RT and the radiochemical purity was measured by using an instant thin-layer chromatography (ITLC-SG, Pall Corporation, USA) on a 13×1.5 cm strip using 0.3 M NaCit (pH 5) as a mobile phase. The radiochemical purity of the peptides was 99-100%.
The imaging studies were performed two weeks post U87MG tumor implantation. For SPECT/CT (single photon emission computed tomography-computed tomography) imaging animals were anesthetized with 1-3% isoflurane in N2/O2 at a 70:30 ratio. The radiolabeled peptide (100 μl) was injected into the tail vein followed by SPECT imaging using a combined small animal SPECT/CT (Gamma Medica Inc., Northridge, Calif.) with dual gamma camera modality. Medium energy parallel hole collimators were used in all gamma imaging with a 171/245/[…] keV energy window for ^111In. Planar two-dimensional imaging for all animals was performed at earliest possible time point after injection with 60 s acquisition time/image up to 30 minutes. For 3D imaging total of 64 projections, (120 s/projection) were used. The matrix size was 80×80 in 125×125 mm^2 field of view (FOV). […]
After the last imaging session animals were sacrificed with CO2 and tissue samples were collected. Major organs and tissues (blood, heart, lungs, liver, spleen, left kidney, duodenum, ovaries, fat, muscle, skin, brain and brain tumor) were weighed, and the radioactivity in each organ or tissue sample was measured in an automated gamma counter (Clinigamma, Turku, Finland). The counts obtained were corrected for the background radiation and physical decay, and tissue radioactivity was expressed as percentage of the injected dose per gram of tissue (% ID/g)±SD.

i.c HIFko astrocytoma = assay: tissue localization of fluorescein-labeled peptide after i.v. injection; assay type: in vivo, mice
Protocol: as §1
Intravenously injected fluorescein-labeled peptides ([…]) and antibodies (20 μg/animal) were allowed to circulate for one hour followed by perfusion through the heart with 10 ml of phosphate buffered saline (PBS) and 10 ml of 4% paraformaldehyde (PFA) in PBS. Tumors and organs were excised, PFA-fixed and soaked in 30% sucrose (w/v) overnight. Tissues were frozen in the OCT embedding medium (Tissue-Tek). Sections (5-10 μm) were cut for histological analyses. To detect the in vivo distribution of the fluorescein-labeled peptides, sections were stained with a rabbit anti-FITC antibody (Zymed Laboratories, San Francisco, USA). […] Sections were examined under an inverted fluorescence microscope (Axioplan).

[7] = test system: HifKO murine astrocytoma cells; assay: targeted treatment of tumor bearing mice; assay type: in vivo; settings: day 14
Protocol: Immunocompromised (Balb/c nu/nu) mice were implanted with HifKO murine astrocytoma cells (Blouw et al. 2003). Treatment with saline (PBS), free chlorambusil (Cbl) and targeted drug (chlorambusil conjugated to CooP peptide; CooP—CPP-Cbl, 5 mg/kg) was started at day 5 post-implantation and continued every second day until day 14.

With “NH2-ACGLSGLGVA-CONH2 (H-ACGLSGLGVA-NH2) [CooP peptide, core …]” as the compound, how does the homing to tumor [1] read?
Its homing to tumor is “did not home”.

What about the homing to tumor [2] of the same compound?
Its homing to tumor is “homed efficiently”.

What about the “peptide detected in tumor” value [3] of the same compound?
The value was “No CooP peptide was detected; also recorded: only negligible amount of the peptide was detected”.

What about the homing to tumor [4] of the same compound?
Its homing to tumor is “to a lesser yet detectable extent”.

And the homing to tumor [5]?
The homing to tumor was “did not home”.

And the homing to tumor [6]?
Its homing to tumor is “homed with high efficiency”.

For `CC(C)C[C@H](NC(=O)[C@H](C)NC(=O)[C@H](C)NC(=O)[C@@H](NC(=O)[C@H](CS)NC(=O)[C@H](C)NC(=O)CN(CCN(CC(=O)O)CC(=O)O)CCN(CC(=O)O)CC(=O)O)C(C)C)C(=O)N[C@@H](CC(N)=O)C(=O)N[C@@H](C)C(=O)N[C@@H](CC(=O)O)C(=O)NCC(N)=O` [^111In-labeled control peptide, NH2-ACVAALNADG-CONH2, metal not drawn, reference compound], which “accumulation in the tumor tissue” value (i.c. U87MG tumor) is on record?
Its value is “No accumulation”.

Which “peptide localization in tumor” value (i.c HIFko astrocytoma; 100 μM, 100 μl/animal i.v., 60 minutes circulation) does the source give for “FITC-CooP: synthetic CooP peptide conjugated to fluorescein (Ac-K(FITC)ACGLSGLGVA-NH2)” here?
The value was “accumulated in the tumor islets in the brain”.

What about the “peptide-derived fluorescence in the kidneys and the choroid plexus” value (i.c HIFko astrocytoma; i.v.) of the same compound?
Its value is “Some peptide-derived fluorescence was observed”.

And the “peptide in surrounding histologically normal brain or other tissues” value (i.c HIFko astrocytoma; i.v., 60 minutes circulation)?
The value was “not detected”.

With `O=C(O)CCCc1ccc(N(CCCl)CCCl)cc1` [chlorambusil] as the compound, how does the “condition of the animals at end of experiment” value [7] read?
Its value is “poor condition of the animals”.

For `CC(C)C[C@H](NC(=O)CNC(=O)[C@H](CO)NC(=O)[C@H](CC(C)C)NC(=O)CNC(=O)[C@H](CS)NC(=O)[C@H](C)NC(=O)CN(CCN(CC(=O)O)CC(=O)O)CCN(CC(=O)O)CC(=O)O)C(=O)NCC(=O)N[C@H](C(=O)N[C@@H](C)C(N)=O)C(C)C` [^111In-CooP, metal not drawn] ({DTPA(central)}-ACGLSGLGVA-NH2), which “tumor half to healthy brain half ratio” value (i.c. U87MG tumor) is on record?
The value was “up to 20:1”.

And the plasma clearance (i.c. U87MG tumor; iv, 20 ug)?
The plasma clearance was “rapid”.
